From patent US8772290B2, “Alpha-arylmethoxyacrylate derivative, preparation method thereof, and pharmaceutical composition containing same” (Oscotech Inc., priority 2010, dated 2014)

test system: HIF; test: Assay for inhibitory activity against HIF activity (HIF1 luciferase reporter cell line); format: cell-based, human; conditions: Homo sapiens; HEK293 HIF1 reporter cell line, 1% oxygen, 6 hours, luciferase activity 50% inhibited
Text: In order to assay the compounds of the present invention for inhibitory activity against HIF activity, the HIF1 reporter plasmid (Panomics) that is designed to control the expression of luciferase by HIF was employed. The HIF1 reporter plasmid and the pTK-Hyg plasmid (Clontech), which carries a hygromycin resistant gene, were co-transfected into the HEK293 cell line (the Korean Cell Line Bank, KCLB No. 21573), derived from the human kidney, with the aid of Effectene transfection reagent (Qiagen). Then, the cells were cultured for 3 weeks on a medium containing 200 μg/mL hygromycin to select transformants resistant to hygromycin. The cell colonies derived from single cells were transferred to 24-well plates to secure a reporter cell line. The cells were seeded at a density of 4×10^4 cells/well into 96-well plates containing DMEM and incubated for 24 hours before treatment with the compounds of the present invention at a concentration of 25 μM, 5 μM, 1 μM, 200 nM, 40 nM, 8 nM, 1.6 nM, 320 pM, 64 pM, 12.8 pM, 2.56 pM, 512 fM, 102 fM, 20.4 fM, or an amount between any two concentrations above as shown in FIGS. 1A to 1C. Under 1% oxygen condition, the cells were incubated for 6 hours and then, the medium was removed. The cells were lyzed by incubation for 5 min with 100 μL of the mixture of Bright-Glo™ luciferase assay buffer and Bright-Glo™ luciferase assay substrate (Promega). The whole cell lysate was transferred to 96-well, white plates (PerkinElmer) and measured for luminescence using Victor™ 3 (PerkinElmer). From the luminescence measurements, IC50 (a concentration of the compound at which luciferase activity was 50% inhibited) was calculated using the GraphPad Prism™ 4 program. The results are summarized in Table 2 and illustrated in FIGS. 1A to 1C.

Row | SMILES | IC50
1 | CCCO/N=C(\CC)c1cc(C)c(OCc2ccccc2/C(=C\OC)C(=O)OC)cc1C [Compound 1, (E)-methyl 2-(2-((2,5-dimethyl-4-((E)-1-(propoxyimino)propyl)phenoxy)-methyl)phenyl)-3-methoxyacrylate] | 1 nM
2 | CCCO/N=C(\C)c1cc(C)c(OCc2ccccc2/C(=C\OC)C(=O)OC)cc1C [Compound 2, (E)-methyl 2-(2-((2,5-dimethyl-4-((E)-1-(propoxyimino)ethyl)phenoxy)-methyl)phenyl)-3-methoxyacrylate] | 1 nM
3 | CO/C=C(/C(=O)OC)c1ccccc1COc1cccc(OCc2ccccc2)c1 [Compound 3, (E)-methyl 2-(2-((3-(benzyloxy)phenoxy)methyl)phenyl)-3-methoxyacrylate] | 50 nM
4 | CCO/N=C/c1cccc(OCc2ccccc2/C(=C\OC)C(=O)OC)c1 [Compound 4, (E)-methyl 2-(2-((3-((E)-(ethoxyimino)methyl)phenoxy)methyl)phenyl)-3-methoxyacrylate] | 290 nM
5 | CO/C=C(/C(=O)OC)c1ccccc1COc1cccc(O)c1 [Compound 5, (E)-methyl 2-(2-((5-hydroxyphenoxy)methyl)phenyl)-3-methoxyacrylate] | 1990 nM
6 | CO/C=C(/C(=O)OC)c1ccccc1COc1cc(C=O)ccc1OC [Compound 6, (E)-methyl 2-(2-((5-formyl-2-methoxyphenoxy)methyl)phenyl)-3-methoxyacrylate] | 14600 nM
7 | CCCO/N=C(\CC)c1cccc(OCc2ccccc2/C(=C\OC)C(=O)OC)c1 [Compound 7, (E)-methyl 2-(2-((3-((E)-1-(propoxyimino)propyl)phenoxy)methyl)-phenyl)-3-methoxyacrylate] | 5070 nM
8 | CCCO/N=C(\C)c1ccc(OCc2ccccc2/C(=C\OC)C(=O)OC)cc1 [Compound 8, (E)-methyl 2-(2-((4-((E)-1-(propoxyimino)ethyl)phenoxy)methyl)phenyl)-3-methoxyacrylate] | 1110 nM
9 | CO/C=C(/C(=O)OC)c1ccccc1COc1ccc(/C(C)=N/OCCN2CCCCC2)cc1 [Compound 9, (E)-methyl 2-(2-((4-((E)-1-(2-(piperidin-1-yl)ethoxyimino)ethyl)phenoxy)-methyl)phenyl)-3-methoxyacrylate] | 6410 nM
10 | CO/C=C(/C(=O)OC)c1ccccc1COc1cccc(/C=N/OCCN2CCCCC2)c1 [Compound 10, (E)-methyl 3-methoxy-2-(2-((3-((E)-(2-(piperidin-1-yl)ethoxyimino)methyl)phenoxy)methyl)phenyl)acrylate] | 7070 nM
11 | CO/C=C(/C(=O)OC)c1ccccc1COc1cccc(OCCNCCO)c1 [Compound 11, (E)-methyl 2-(2-((3-(2-(2-hydroxyethylamino)ethoxy)phenoxy)methyl)-phenyl)-3-methoxyacrylate] | 640 nM
12 | CO/C=C(/C(=O)OC)c1ccccc1COc1cccc(OCCO)c1 [Compound 12, (E)-methyl 2-(2-((3-(2-hydroxyethoxy)phenoxy)methyl)phenyl)-3-methoxyacrylate] | 5990 nM
13 | CO/C=C(/C(=O)OC)c1ccccc1COc1cccc(OCC[N+]2([O-])CCOCC2)c1 [Compound 13, (E)-4-(2-(3-(2-(1,3-dimethoxy-3-oxoprop-1-en-2-yl)benzyloxy)phenoxy)-ethyl)morpholine 4-oxide] | 10000 nM
14 | CCCO/N=C/c1cccc(OCc2ccccc2/C(=C\OC)C(=O)OC)c1 [Compound 14, (E)-methyl 3-methoxy-2-(2-((3-((E)-(propoxyimino)methyl)phenoxy)-methyl)phenyl)acrylate] | 19900 nM
15 | CO/C=C(/C(=O)OC)c1ccccc1COc1cc(O)cc(F)c1 [Compound 15, (E)-methyl 2-(2-((3-fluoro-5-hydroxyphenoxy)methyl)phenyl)-3-methoxyacrylate] | 3720 nM
16 | CO/C=C(/C(=O)OC)c1ccccc1COc1cccc(OCCc2ccccc2)c1 [Compound 16, (E)-methyl 2-(2-((3-phenethoxyphenoxy)methyl)phenyl)-3-methoxyacrylate] | 340 nM
17 | CO/C=C(/C(=O)OC)c1ccccc1COc1ccc(/C(C)=N/OCc2ccccc2)cc1 [Compound 17, (E)-methyl 2-(2-((4-((E)-1-(benzyloxyimino)ethyl)phenoxy)methyl)-phenyl)-3-methoxyacrylate] | 370 nM
18 | CO/C=C(/C(=O)OC)c1ccccc1COc1ccc(/C(C)=N/OCCc2ccccc2)cc1 [Compound 18, (E)-methyl 2-(2-((4-((E)-1-(phenethoxyimino)ethyl)phenoxy)methyl)-phenyl)-3-methoxyacrylate] | 400 nM
19 | CO/C=C(/C(=O)OC)c1ccccc1COc1ccc(F)cc1 [Compound 19, (E)-methyl 2-(2-((4-fluorophenoxy)methyl)phenyl)-3-methoxyacrylate] | 920 nM
20 | CO/C=C(/C(=O)OC)c1ccccc1COc1cc(F)cc(OCc2ccccc2)c1 [Compound 21, (E)-methyl 2-(2-((3-(benzyloxy)-5-fluorophenoxy)methyl)phenyl)-3-methoxyacrylate] | 490 nM

Other lines, results leading:

Row | IC50 | SMILES
21 | 260 nM | CO/C=C(/C(=O)OC)c1ccccc1COc1cc(F)cc(OCCOc2ccccc2)c1 [Compound 22, (E)-methyl 2-(2-((3-fluoro-5-(2-phenoxyethoxy)phenoxy)methyl)phenyl)-3-methoxyacrylate]
22 | 230 nM | CO/C=C(/C(=O)OC)c1ccccc1COc1cc(F)cc(OCc2ccccn2)c1 [Compound 23, (E)-methyl 2-(2-((3-fluoro-5-(pyridin-2-ylmethoxy)phenoxy)methyl)-phenyl)-3-methoxyacrylate]
23 | 640 nM | CO/C=C(/C(=O)OC)c1ccccc1COc1cc(F)cc(OCc2ccc([N+](=O)[O-])cc2)c1 [Compound 24, (E)-methyl 2-(2-((3-fluoro-5-(4-nitrobenzyloxy)phenoxy)methyl)phenyl)-3-methoxyacrylate]
24 | 440 nM | CO/C=C(/C(=O)OC)c1ccccc1COc1cccc(/C=N/N2CCOCC2)c1 [Compound 25, (E)-methyl 3-methoxy-2-(2-((3-((E)-(morpholinoimino)methyl)phenoxy)-methyl)phenyl)acrylate]
25 | 510 nM | CO/C=C(/C(=O)OC)c1ccccc1COc1cccc(OCc2ccccn2)c1 [Compound 26, (E)-methyl 2-(2-((3-(pyridin-2-ylmethoxy)phenoxy)methyl)phenyl)-3-methoxyacrylate]
26 | 340 nM | CO/C=C(/C(=O)OC)c1ccccc1COc1cccc(OCc2ccncc2)c1 [Compound 27, (E)-methyl 2-(2-((3-(pyridin-4-ylmethoxy)phenoxy)methyl)phenyl)-3-methoxyacrylate]
27 | 710 nM | CO/C=C(/C(=O)OC)c1ccccc1COc1cc(O)cc(OCc2ccccn2)c1 [Compound 28, (E)-methyl 2-(2-((3-hydroxy-5-(pyridin-2-ylmethoxy)phenoxy)methyl)-phenyl)-3-methoxyacrylate]
28 | 11000 nM | CO/C=C(/C(=O)OC)c1ccccc1COc1cc(O)cc(OCc2ccncc2)c1 [Compound 29, (E)-methyl 2-(2-((3-hydroxy-5-(pyridin-4-ylmethoxy)phenoxy)methyl)-phenyl)-3-methoxyacrylate]
29 | 4140 nM | CC/C(=N\N1CCOCC1)c1cc(C)c(OCc2ccccc2/C(=C\OC)C(=O)OC)cc1C [Compound 30, (E)-methyl 2-(2-((2,5-dimethyl-4-((E)-1-(morpholinoimino)propyl)-phenoxy)methyl)phenyl)-3-methoxyacrylate]
30 | 1730 nM | CO/C=C(/C(=O)OC)c1ccccc1COc1ccc(/C=N/O)cc1C [Compound 31, (E)-methyl 2-(2-((4-((E)-(hydroxyimino)methyl)-2-methylphenoxy)-methyl)phenyl)-3-methoxyacrylate]
31 | 20 nM | CCCO/N=C/c1ccc(OCc2ccccc2/C(=C\OC)C(=O)OC)c(C)c1 [Compound 32, (E)-methyl 2-(2-((2-methyl-4-((E)-(propoxyimino)methyl)phenoxy)-methyl)phenyl)-3-methoxyacrylate]
32 | 210 nM | CO/C=C(/C(=O)OC)c1ccccc1COc1ccc(/C=N/OCc2ccccc2)cc1C [Compound 33, (E)-methyl 2-(2-((4-((E)-(benzyloxyimino)methyl)-2-methylphenoxy)-methyl)phenyl)-3-methoxyacrylate]
33 | 4480 nM | CO/C=C(/C(=O)OC)c1ccccc1COc1ccc(/C(C)=N/O)cc1OC [Compound 34, (E)-methyl 2-(2-((4-((E)-1-(hydroxyimino)ethyl)-2-methoxyphenoxy)-methyl)phenyl)-3-methoxyacrylate]
34 | 1920 nM | CCCO/N=C(\C)c1ccc(OCc2ccccc2/C(=C\OC)C(=O)OC)c(OC)c1 [Compound 35, (E)-methyl 2-(2-((4-((E)-1-(propoxyimino)ethyl)-2-methoxyphenoxy)-methyl)phenyl)-3-methoxyacrylate]
35 | 880 nM | CO/C=C(/C(=O)OC)c1ccccc1COc1ccc(/C(C)=N/OCc2ccccc2)cc1OC [Compound 36, (E)-methyl 2-(2-((4-((E)-1-(benzyloxyimino)ethyl)-2-methoxyphenoxy)-methyl)phenyl)-3-methoxyacrylate]
